From patent US20200277556A1, “USE OF AN ADDITIVE TO IMPROVE THE QUALITY OF BEVERAGES BASED ON PLANT MUSTS” (OENOTROPIC INNOVATION, priority 2017, published 2020)

Tested on: Wine Proteins
Assay: Effect of different cofactors on the activity of bromelain on wine, SDS PAGE
Format: biochemical
Conditions: CaCl2 as cofactor of bromelain; data not presented
Protocol: Cysteine is known to improve the activity of bromelain. […] To test the relevance of using methionine and glutathione as cofactors of a cysteine protease, the inventors compared the effect of these cofactors to the effect of cysteine on the activity of bromelain in wine. To this end, the following protocol has been implemented: • Wine: Gewurztraminer type with a pH of 3.8; • Add 10 mM of cysteine, glutathione or methionine, for 3 wine samples; • Weigh four times 8 mg of the pre-purified extract obtained from the sequence of steps 1, 2 and 4 of the above method; • Dissolve each pre-purified extract in wine, wine in the presence of cysteine, wine in the presence of glutathione and wine in the presence of methionine; • Leave in contact for 16 hours, with the plate stirring at 80 rpm and at room temperature; • Take 60 μl of the supernatant; • Add 20 μl of Laemmli 4×; • Place 50 μl on SDS PAGE gel.

[Ca+2].[Cl-].[Cl-] [CaCl2, calcium chloride]
effect on the hydrolysis of wine proteins: positive effect
